ChEMBL document CHEMBL3885881, “DrugMatrix”

Species: Rattus norvegicus
Experiment: DrugMatrix - Regimen: Daily Repeat
Assay type: toxicity, organism-based, Sprague-Dawley
Set-up: regimen Daily Repeat, gender Male, age 6-8 weeks
Conditions: in vivo, po, route oral GAVAGE, vehicle 100 % WATER; for ABSOLUTE BASOPHIL / ABSOLUTE EOSINOPHIL / ABSOLUTE LYMPHOCYTE / ABSOLUTE MONOCYTE / ABSOLUTE SEGMENTED NEUTROPHIL / BASOPHIL / EOSINOPHIL / ERYTHROCYTE COUNT / HEMATOCRIT / HEMOGLOBIN / LEUKOCYTE COUNT / LYMPHOCYTE / MEAN CORPUSCULAR HEMOGLOBIN / MEAN CORPUSCULAR HEMOGLOBIN CONCENTRATION / MEAN CORPUSCULAR VOLUME / MONOCYTE / NEUTROPHIL / NUCLEATED RED BLOOD CELLS / PLATELET COUNT: tissue Blood; for ALANINE AMINOTRANSFERASE / ALBUMIN / ALKALINE PHOSPHATASE / ASPARTATE AMINOTRANSFERASE / BLOOD UREA NITROGEN / CARBON DIOXIDE / CHLORIDE / CHOLESTEROL / CREATINE PHOSPHOKINASE / CREATININE / GLUCOSE / LACTATE DEHYDROGENASE / LIPASE / PHOSPHORUS / POTASSIUM / SODIUM / TOTAL BILIRUBIN / TOTAL PROTEIN / URIC ACID: tissue Plasma
[1] = 0 mg/kg, 72 h, dose level Control, time 3 day
[2] = 0 mg/kg, 120 h, dose level Control, time 5 day
[3] = 25 mg/kg, 72 h, dose level Low, time 3 day

c1ccc([C@H]2CN3CCSC3=N2)cc1 [LEVAMISOLE]
ABSOLUTE BASOPHIL [1]: 0 CELLS/uL
ABSOLUTE EOSINOPHIL [1]: 20.17 CELLS/uL
ABSOLUTE LYMPHOCYTE [1]: 12371.67 CELLS/uL
ABSOLUTE MONOCYTE [1]: 166 CELLS/uL
ABSOLUTE SEGMENTED NEUTROPHIL [1]: 1292.17 CELLS/uL
BASOPHIL [1]: 0%
EOSINOPHIL [1]: 0.17%
ERYTHROCYTE COUNT [1]: 5.46 x10E6/uL
HEMATOCRIT [1]: 34.38%
HEMOGLOBIN [1]: 13.32 G/DL
LEUKOCYTE COUNT [1]: 13.85 x10E3/uL
LYMPHOCYTE [1]: 88.5%
MEAN CORPUSCULAR HEMOGLOBIN [1]: 24.42 pg
MEAN CORPUSCULAR HEMOGLOBIN CONCENTRATION [1]: 38.7 G/DL
MEAN CORPUSCULAR VOLUME [1]: 63.07 fL
MONOCYTE [1]: 1.17%
NEUTROPHIL [1]: 10.17%
NUCLEATED RED BLOOD CELLS [1]: 0.17 /100WBC
PLATELET COUNT [1]: 1193.5 x10E3/uL
ALANINE AMINOTRANSFERASE [1]: 54.5 u/L
ALBUMIN [1]: 4.02 G/DL
ALKALINE PHOSPHATASE [1]: 346.5 u/L
ASPARTATE AMINOTRANSFERASE [1]: 103.17 u/L
BLOOD UREA NITROGEN [1]: 16.5 mg/dL
CARBON DIOXIDE [1]: 29.83 mmol/L
CHLORIDE [1]: 99.5 MEQ/L
CHOLESTEROL [1]: 72.5 mg/dL
CREATINE PHOSPHOKINASE [1]: 532.5 u/L
CREATININE [1]: 0.18 mg/dL
GLUCOSE [1]: 168.5 mg/dL
LACTATE DEHYDROGENASE [1]: 536.5 u/L
LIPASE [1]: 11.17 u/L
PHOSPHORUS [1]: 11.48 mg/dL
POTASSIUM [1]: 5.95 MEQ/L
SODIUM [1]: 140.5 MEQ/L
TOTAL BILIRUBIN [1]: 0.18 mg/dL
TOTAL PROTEIN [1]: 5.77 G/DL
URIC ACID [1]: 1.42 mg/dL
ABSOLUTE BASOPHIL [2]: 0 CELLS/uL
ABSOLUTE EOSINOPHIL [2]: 22.83 CELLS/uL
ABSOLUTE LYMPHOCYTE [2]: 12202.83 CELLS/uL
ABSOLUTE MONOCYTE [2]: 158 CELLS/uL
ABSOLUTE SEGMENTED NEUTROPHIL [2]: 1283 CELLS/uL
BASOPHIL [2]: 0%
EOSINOPHIL [2]: 0.17%
ERYTHROCYTE COUNT [2]: 5.88 x10E6/uL
HEMATOCRIT [2]: 36.62%
HEMOGLOBIN [2]: 14.07 G/DL
LEUKOCYTE COUNT [2]: 13.67 x10E3/uL
LYMPHOCYTE [2]: 89.5%
MEAN CORPUSCULAR HEMOGLOBIN [2]: 23.95 pg
MEAN CORPUSCULAR HEMOGLOBIN CONCENTRATION [2]: 38.43 G/DL
MEAN CORPUSCULAR VOLUME [2]: 62.28 fL
MONOCYTE [2]: 1.17%
NEUTROPHIL [2]: 9.17%
NUCLEATED RED BLOOD CELLS [2]: 0.17 /100WBC
PLATELET COUNT [2]: 1198 x10E3/uL
ALANINE AMINOTRANSFERASE [2]: 51 u/L
ALBUMIN [2]: 4.3 G/DL
ALKALINE PHOSPHATASE [2]: 343 u/L
ASPARTATE AMINOTRANSFERASE [2]: 89.83 u/L
BLOOD UREA NITROGEN [2]: 17.67 mg/dL
CARBON DIOXIDE [2]: 27.17 mmol/L
CHLORIDE [2]: 98.33 MEQ/L
CHOLESTEROL [2]: 82.5 mg/dL
CREATINE PHOSPHOKINASE [2]: 533.33 u/L
CREATININE [2]: 0.18 mg/dL
GLUCOSE [2]: 152.67 mg/dL
LACTATE DEHYDROGENASE [2]: 220.33 u/L
LIPASE [2]: 11.5 u/L
PHOSPHORUS [2]: 11.25 mg/dL
POTASSIUM [2]: 6.29 MEQ/L
SODIUM [2]: 140.53 MEQ/L
TOTAL BILIRUBIN [2]: 0.22 mg/dL
TOTAL PROTEIN [2]: 6.12 G/DL
URIC ACID [2]: 1.42 mg/dL
ABSOLUTE BASOPHIL [3]: 0 CELLS/uL
ABSOLUTE EOSINOPHIL [3]: 0 CELLS/uL
ABSOLUTE LYMPHOCYTE [3]: 9283.33 CELLS/uL
ABSOLUTE MONOCYTE [3]: 29.33 CELLS/uL
ABSOLUTE SEGMENTED NEUTROPHIL [3]: 1254 CELLS/uL
BASOPHIL [3]: 0%
EOSINOPHIL [3]: 0%
ERYTHROCYTE COUNT [3]: 5.36 x10E6/uL
HEMATOCRIT [3]: 32.73%
HEMOGLOBIN [3]: 13 G/DL
LEUKOCYTE COUNT [3]: 10.57 x10E3/uL
LYMPHOCYTE [3]: 87.67%
MEAN CORPUSCULAR HEMOGLOBIN [3]: 24.3 pg
MEAN CORPUSCULAR HEMOGLOBIN CONCENTRATION [3]: 39.73 G/DL
MEAN CORPUSCULAR VOLUME [3]: 61.17 fL
MONOCYTE [3]: 0.33%
NEUTROPHIL [3]: 12%
NUCLEATED RED BLOOD CELLS [3]: 0 /100WBC
PLATELET COUNT [3]: 1056.33 x10E3/uL
ALANINE AMINOTRANSFERASE [3]: 64.33 u/L
ALBUMIN [3]: 3.87 G/DL
ALKALINE PHOSPHATASE [3]: 326.33 u/L
ASPARTATE AMINOTRANSFERASE [3]: 98.67 u/L
BLOOD UREA NITROGEN [3]: 14.33 mg/dL
CARBON DIOXIDE [3]: 30 mmol/L
CHLORIDE [3]: 99 MEQ/L
CHOLESTEROL [3]: 78.33 mg/dL
CREATINE PHOSPHOKINASE [3]: 446 u/L
CREATININE [3]: 0.19 mg/dL
GLUCOSE [3]: 155 mg/dL
LACTATE DEHYDROGENASE [3]: 214 u/L
LIPASE [3]: 10.67 u/L
PHOSPHORUS [3]: 11.53 mg/dL
POTASSIUM [3]: 5.92 MEQ/L
SODIUM [3]: 142 MEQ/L
TOTAL BILIRUBIN [3]: 0.17 mg/dL
TOTAL PROTEIN [3]: 5.57 G/DL
